According to US10780090B2, “Heteroaryl compounds useful as inhibitors of SUMO activating enzyme” (Millennium Pharmaceuticals, Inc., priority 2014, dated 2020):
Where two headings read alike, the source gives them in different places.

Biological target: recombinant human SAE enzyme (Homo sapiens (Human), UniProt Q9UBT2)
Assay: SAE HTRF enzyme assay
Assay type: biochemical
Conditions: for inhibition at 0.111 µM: read-out: Percent Inhibition
In short: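 Sumoylation of Ubc9-GST by SAE was followed at low ATP (0.5 μM), pH 7.5, 24° C. for 105 min. Product was detected by HTRF with antibody pairs against Flag and GST tags.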

[1] = SAE inhibition at compound concentration 0.111 μM
[2] = SAE inhibition, class symbols, legend in nM

Chain of recombinant human SAE enzyme (Q9UBT2 whole entry): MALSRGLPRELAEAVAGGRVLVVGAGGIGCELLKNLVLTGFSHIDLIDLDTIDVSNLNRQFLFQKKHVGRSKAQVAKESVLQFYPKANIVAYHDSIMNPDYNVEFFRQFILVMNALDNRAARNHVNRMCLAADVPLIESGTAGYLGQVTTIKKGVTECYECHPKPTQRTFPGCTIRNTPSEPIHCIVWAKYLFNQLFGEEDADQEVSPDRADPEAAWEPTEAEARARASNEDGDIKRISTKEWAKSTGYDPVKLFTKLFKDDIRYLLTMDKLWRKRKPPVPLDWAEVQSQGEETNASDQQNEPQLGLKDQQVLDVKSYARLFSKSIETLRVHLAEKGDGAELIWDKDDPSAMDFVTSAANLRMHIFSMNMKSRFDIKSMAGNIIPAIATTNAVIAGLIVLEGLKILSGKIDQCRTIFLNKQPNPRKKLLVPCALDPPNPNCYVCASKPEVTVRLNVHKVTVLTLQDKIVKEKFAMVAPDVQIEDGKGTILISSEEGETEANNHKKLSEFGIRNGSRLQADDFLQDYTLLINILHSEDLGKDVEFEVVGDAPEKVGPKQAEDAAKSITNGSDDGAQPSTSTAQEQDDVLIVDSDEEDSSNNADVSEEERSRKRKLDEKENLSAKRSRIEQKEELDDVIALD
Chain of recombinant human SAE enzyme (Q9UBE0 whole entry partner): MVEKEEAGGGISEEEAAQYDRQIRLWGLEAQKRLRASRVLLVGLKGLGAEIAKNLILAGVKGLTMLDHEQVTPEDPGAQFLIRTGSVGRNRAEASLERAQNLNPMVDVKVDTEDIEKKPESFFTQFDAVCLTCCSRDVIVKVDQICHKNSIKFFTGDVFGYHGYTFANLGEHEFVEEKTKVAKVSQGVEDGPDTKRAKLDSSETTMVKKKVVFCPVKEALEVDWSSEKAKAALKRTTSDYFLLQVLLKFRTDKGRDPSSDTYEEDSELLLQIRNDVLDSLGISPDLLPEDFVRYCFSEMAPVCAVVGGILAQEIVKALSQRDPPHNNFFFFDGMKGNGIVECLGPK

With `NS(=O)(=O)OC[C@H]1C[C@@H](Nc2ncncc2C(=O)c2cc(Cc3cccc(Cl)c3)c([C@@H]3CCCO3)s2)C[C@@H]1O` (single isomer, unassigned) [I-41a, [(1R,2S,4R)-4-{[5-({4-(3-chlorobenzyl)-5-[(2S)-tetrahydrofuran-2-yl]-2-thienyl}carbonyl)pyrimidin-4-yl]amino}-2-hydroxycyclopentyl]methyl sulfamate or [(1R,2S,4R)-4-{[5-({4-(3-chlorobenzyl)-5-[(2R)-tetrahydrofuran-2-yl]-2-thienyl}carbonyl)pyrimidin-4-yl]amino}-2-hydroxycyclopentyl]methyl sulfamate] the “Percent Inhibition” value (Concentration 0.111 μM) was 98 and the IC50 (class symbols A/B/C) was < 10 nM.
`NS(=O)(=O)OC[C@H]1C[C@@H](Nc2ncncc2C(=O)c2cc([C@@]3(c4cccc(Cl)c4)CCCN3)cs2)C[C@@H]1O` (single isomer, unassigned) [I-38a, [(1R,2S,4R)-4-{[5-({4-[(2S)-2-(3-chlorophenyl)pyrrolidin-2-yl]-2-thienyl}carbonyl)pyrimidin-4-yl]amino}-2-hydroxycyclopentyl]methyl sulfamate or [(1R,2S,4R)-4-{[5-({4-[(2R)-2-(3-chlorophenyl)pyrrolidin-2-yl]-2-thienyl}carbonyl)pyrimidin-4-yl]amino}-2-hydroxycyclopentyl]methyl sulfamate] was tested, and the “Percent Inhibition” value (Concentration 0.111 μM) was 75 and the IC50 (class symbols A/B/C) was 10 to 100 nM.
`NS(=O)(=O)OC[C@H]1C[C@@H](Nc2ncncc2C(=O)c2cc(Cc3cccc(F)c3)cs2)C[C@@H]1O` [I-97, {(1R,2S,4R)-4-[(5-{[4-(3-fluorobenzyl)-2-thienyl]carbonyl}pyrimidin-4-yl)amino]-2-hydroxycyclopentyl}methyl sulfamate] was tested, and the inhibition at 0.111 µM (Concentration 0.111 μM) was 97%.
With `Cc1sc(C(=O)c2cncnc2N[C@@H]2C[C@H](COS(N)(=O)=O)[C@@H](O)C2)cc1[C@@H]1OCOc2ccccc21` (single isomer, unassigned) [I-280a, [(1R,2S,4R)-4-{[5-({4-[(4R)-4H-1,3-benzodioxin-4-yl]-5-methyl-2-thienyl}carbonyl)pyrimidin-4-yl]amino}-2-hydroxycyclopentyl]methyl sulfamate or [(1R,2S,4R)-4-{[5-({4-[(4S)-4H-1,3-benzodioxin-4-yl]-5-methyl-2-thienyl}carbonyl)pyrimidin-4-yl]amino}-2-hydroxycyclopentyl]methyl sulfamate] the “Percent Inhibition” value [1] was 75% and the IC50 [2] was 10 to 100 nM.
For `NS(=O)(=O)OC[C@H]1C[C@@H](Nc2ncncc2C(=O)c2cc([C@@H]3OCc4ccc(Cl)cc43)c(Cl)s2)C[C@@H]1O` (single isomer, unassigned) [I-310b, [(1R,2S,4R)-4-{[5-({5-chloro-4-[(1R)-6-chloro-1,3-dihydro-2-benzofuran-1-yl]-2-thienyl}carbonyl)pyrimidin-4-yl]amino}-2-hydroxycyclopentyl]methyl sulfamate or [(1R,2S,4R)-4-{[5-({5-chloro-4-[(1S)-6-chloro-1,3-dihydro-2-benzofuran-1-yl]-2-thienyl}carbonyl)pyrimidin-4-yl]amino}-2-hydroxycyclopentyl]methyl sulfamate], the “Percent Inhibition” value [1] was 98% and the IC50 [2] was < 10 nM.
For `NS(=O)(=O)OC[C@H]1C[C@@H](Nc2ncncc2C(=O)c2cc([C@@H]3NCc4ccc(Cl)cc43)c(Cl)s2)C[C@@H]1O` (mixture of isomers) [I-262, [(1R,2S,4R)-4-{[5-({5-chloro-4-[(1R)-6-chloro-2,3-dihydro-1H-isoindol-1-yl]-2-thienyl}carbonyl)pyrimidin-4-yl]amino}-2-hydroxycyclopentyl]methyl sulfamate and [(1R,2S,4R)-4-{[5-({5-chloro-4-[(1S)-6-chloro-2,3-dihydro-1H-isoindol-1-yl]-2-thienyl}carbonyl)pyrimidin-4-yl]amino}-2-hydroxycyclopentyl]methyl sulfamate], the “Percent Inhibition” value (Concentration 0.111 μM) was 100 and the IC50 (class symbols A/B/C) was < 10 nM.
For `Cc1sc(C(=O)c2cncnc2N[C@@H]2C[C@H](COS(N)(=O)=O)[C@@H](O)C2)cc1CN1CCc2ccc(C#N)cc21` [I-128, [(1R,2S,4R)-4-{[5-({4-[(6-cyano-2,3-dihydro-1H-indol-1-yl)methyl]-5-methyl-2-thienyl}carbonyl)pyrimidin-4-yl]amino}-2-hydroxycyclopentyl]methyl sulfamate], the inhibition at 0.111 µM (Concentration 0.111 μM) was 95% and the IC50 (class symbols A/B/C) was < 10 nM.
For `Cc1sc(C(=O)c2cncnc2N[C@@H]2C[C@H](COS(N)(=O)=O)[C@@H](O)C2)cc1[C@H]1NCCc2ccc(Br)cc21` (single isomer, unassigned) [I-248a, [(1R,2S,4R)-4-{[5-({4-[(1S)-7-bromo-1,2,3,4-tetrahydroisoquinolin-1-yl]-5-methyl-2-thienyl}carbonyl)pyrimidin-4-yl]amino}-2-hydroxycyclopentyl]methyl sulfamate or [(1R,2S,4R)-4-{([5-({4-[(1R)-7-bromo-1,2,3,4-tetrahydroisoquinolin-1-yl]-5-methyl-2-thienyl}carbonyl)pyrimidin-4-yl]amino}-2-hydroxycyclopentyl]methyl sulfamate], the “Percent Inhibition” value (Concentration 0.111 μM) was 99 and the IC50 (class symbols A/B/C) was < 10 nM.
With `CC[C@H](C)[C@H](N)C(=O)O[C@H]1C[C@H](Nc2ncncc2C(=O)c2cc([C@@H]3OCCc4ccc(Cl)cc43)c(C)s2)C[C@@H]1COS(N)(=O)=O.Cl` [I-363] the “Percent Inhibition” value [1] was 57%.
`Cc1sc(C(=O)c2cncnc2N[C@@H]2C[C@H](COS(N)(=O)=O)[C@@H](O)[C@H]2O)nc1Cc1cccc(Br)c1` [I-354, {(1R,2R,3S,4R)-4-[(5-{[4-(3-bromobenzyl)-5-methyl-1,3-thiazol-2-yl]carbonyl}pyrimidin-4-yl)amino]-2,3-dihydroxycyclopentyl}methyl sulfamate] was tested, and the inhibition at 0.111 µM [1] was 100% and the IC50 [2] was < 10 nM.
In the case of `NS(=O)(=O)OC[C@H]1C[C@@H](Nc2ncncc2C(=O)c2cc([C@@H]3OCCc4ccc(F)cc43)c(Cl)s2)C[C@@H]1O` (single isomer, unassigned) [I-294b, [(1R,2S,4R)-4-{[5-({5-chloro-4-[(1R)-7-fluoro-3,4-dihydro-1H-isochromen-1-yl]-2-thienyl}carbonyl)pyrimidin-4-yl]amino}-2-hydroxycyclopentyl]methyl sulfamate or [(1R,2S,4R)-4-{[5-({5-chloro-4-[(1S)-7-fluoro-3,4-dihydro-1H-isochromen-1-yl]-2-thienyl}carbonyl)pyrimidin-4-yl]amino}-2-hydroxycyclopentyl]methyl sulfamate], the “Percent Inhibition” value [1] is reported as 98% and the IC50 [2] is reported as < 10 nM.
`NS(=O)(=O)OC[C@H]1C[C@@H](Nc2ncncc2C(=O)c2cc([C@H](O)c3cc(Cl)ccc3Cl)c(Cl)s2)C[C@@H]1O` (mixture of isomers) [I-149, [(1R,2S,4R)-4-{[5-({5-chloro-4-[(R)-(2,5-dichlorophenyl)(hydroxy)methyl]-2-thienyl}carbonyl)pyrimidin-4-yl]amino}-2-hydroxycyclopentyl]methyl sulfamate and [(1R,2S,4R)-4-{[5-({5-chloro-4-[(S)-(2,5-dichlorophenyl)(hydroxy)methyl]-2-thienyl}carbonyl)pyrimidin-4-yl]amino}-2-hydroxycyclopentyl]methyl sulfamate] was tested, and the “Percent Inhibition” value (Concentration 0.111 μM) was 97 and the IC50 (class symbols A/B/C) was < 10 nM.
`NS(=O)(=O)OC[C@H]1C[C@@H](Nc2ncncc2C(=O)c2cc([C@@H]3NCCc4ccc(Cl)cc43)c(Cl)s2)[C@H](O)[C@@H]1O` (single isomer, unassigned) [I-249b, [(1R,2R,3S,4R)-4-{[5-({5-chloro-4-[(1R)-7-chloro-1,2,3,4-tetrahydroisoquinolin-1-yl]-2-thienyl}carbonyl)pyrimidin-4-yl]amino}-2,3-dihydroxycyclopentyl]methyl sulfamate or [(1R,2R,3S,4R)-4-{[5-({5-chloro-4-[(1S)-7-chloro-1,2,3,4-tetrahydroisoquinolin-1-yl]-2-thienyl}carbonyl)pyrimidin-4-yl]amino}-2,3-dihydroxycyclopentyl]methyl sulfamate] was tested, and the “Percent Inhibition” value (Concentration 0.111 μM) was 92 and the IC50 (class symbols A/B/C) was < 10 nM.
In the case of `Cc1sc(C(=O)c2cncnc2N[C@@H]2C[C@H](COS(N)(=O)=O)[C@@H](O)C2)cc1[C@H]1OCCc2ccccc21` [I-256a, [(1R,2S,4R)-4-{[5-({4-[(1S)-3,4-dihydro-1H-isochromen-1-yl]-5-methyl-2-thienyl}carbonyl)pyrimidin-4-yl]amino}-2-hydroxycyclopentyl]methyl sulfamate], the inhibition at 0.111 µM (Concentration 0.111 μM) is reported as 94% and the IC50 (class symbols A/B/C) is reported as < 10 nM.
With `NS(=O)(=O)OC[C@H]1C[C@@H](Nc2ncncc2C(=O)c2cc([C@H](O)c3ccc(Cl)s3)c(Cl)s2)C[C@@H]1O` (mixture of isomers) [I-103, [(1R,2S,4R)-4-{[5-({5-chloro-4-[(S)-(5-chloro-2-thienyl)(hydroxy)methyl]-2-thienyl}carbonyl)pyrimidin-4-yl]amino}-2-hydroxycyclopentyl]methyl sulfamate and [(1R,2S,4R)-4-{[5-({5-chloro-4-[(R)-(5-chloro-2-thienyl)(hydroxy)methyl]-2-thienyl}carbonyl)pyrimidin-4-yl]amino}-2-hydroxycyclopentyl]methyl sulfamate] the “Percent Inhibition” value (Concentration 0.111 μM) was 96 and the IC50 (class symbols A/B/C) was < 10 nM.
With `NS(=O)(=O)OC[C@H]1C[C@@H](Nc2ncncc2C(=O)c2cc(Cn3ccc4cccnc43)cs2)C[C@@H]1O` [I-92, {(1R,2S,4R)-2-hydroxy-4-[(5-{[4-(1H-pyrrolo[2,3-b]pyridin-1-ylmethyl)-2-thienyl]carbonyl}pyrimidin-4-yl)amino]cyclopentyl}methyl sulfamate] the inhibition at 0.111 µM (Concentration 0.111 μM) was 98% and the IC50 (class symbols A/B/C) was < 10 nM.
